Experimental data from PMC11017298, “Macrocyclic Oxindole Peptide Epoxyketones—A Comparative Study of Macrocyclic Inhibitors of the 20S Proteasome” (ACS Medicinal Chemistry Letters, 2024).
Where two headings read alike, the source gives them in different places.

Legend:
Type in all cases: biochemical
[1] = target: T1, human 20S proteasome ChT-L activity (Homo sapiens, UniProt P28074); assay: Fluorometric kinetic enzyme assay, 20S proteasome ChT-L activity (Suc-LLVY-AMC); details: for IC50: constitutive human 20S proteasome, Suc-LLVY-AMC, 37 C, 10 min
T1 construct: human RBC proteasome was purchased from South Bay Bio; purchased South Bay Bio; host or cells: human red blood cells
Description: (§1) Fluorometric kinetic enzyme inhibition assays (for details, see Supporting Information) were performed for the ChT-L activity of the constitutive 20S proteasome to compare IC50 values for 5 with linear analogue 6, unoxidized macrocycles 15a and 15b, and macrocyclic C-terminal amide 12 (Table 1). Furthermore, inhibition of the 20S proteasomal ChT-L activity was compared with T-L and PGPH-L activities and with inhibition of serine protease chymotrypsin and cysteine proteases cathepsin B and m-calpain.
(§2) 6. In Vitro Kinetic Enzyme Assays
(§3) The inhibitory potency and selectivity of the final compounds were tested using in vitro fluorescent enzyme kinetics. The enzyme assays used the fluorogenic substrate Suc-Leu-Leu-Val-Tyr-AMC (Suc-LLVY-AMC) and either the human 20S proteasome or alternate proteases chymotrypsin, m-calpain and cathepsin B. For cathepsin B, Cbz-Arg-Arg-AMC was used as the fluorogenic substrate. Kinetic enzyme assays were carried out on a fluorescent 96-well plate reader and AMC-substrate hydrolysis was measured at 353 nm excitation and 442 nm emission. Wells with inhibitor and wells with control solution were run in tandem. Vi and v0 were calculated from the slope of the measured relative fluorescent units (RFUs) graphed against time for inhibitor and control wells, respectively. Values for vi /v0 were plotted as a function of inhibitor concentration with GraphPad Prism and IC50 values were calculated from a nonlinear regression analysis of the data ([Inhibitor] vs. response, three parameters).
Human 20S Proteasome ChT-L Activity: A well was loaded with 86 µL of buffer (20 mM HEPES, 0.5 mM EDTA, 0.037% SDS, pH 7.8), 2 µL of fluorogenic substrate (Suc-LLVY-AMC, 5 mM in DMSO), 20 µL of human 20S proteasome (0.34 µM in H2O) and either 2 µL of inhibitor (at varying concentrations in DMSO) or 2 µL of DMSO (control). The fluorescent signal of the cleaved AMC chromophore was measured in RFUs at 37 °C over a span of 10 minutes with measurements taken every 20 seconds. […]

[2] = target: T2, human 20S proteasome T-L activity (Homo sapiens, UniProt Q99436); assay: Fluorometric kinetic enzyme assay, 20S proteasome T-L activity (Ac-RLR-AMC)
T2 construct: human RBC proteasome was purchased from South Bay Bio; purchased South Bay Bio; host or cells: human red blood cells
Description: as §1, §2
as §3, with “parameters). […]” for “parameters).”
Human 20S Proteasome T-L Activity: A well was loaded with 69 µL of buffer (50 mM Tris, 1 mM EDTA, 100 mM NaCl, pH 7.5), 2 µL of fluorogenic substrate (Ac-RLR-AMC, 59 mM in DMSO), 2 µL of human 20S proteasome (2.6 µM in H2O) and either 2 µL of inhibitor (at varying concentrations in DMSO) or 2 µL of DMSO (control). […]

[3] = target: T3, human 20S proteasome PGPH-L activity (Homo sapiens, UniProt P28072); assay: Fluorometric kinetic enzyme assay, 20S proteasome PGPH-L activity (Cbz-LLE-AMC)
T3 construct: human RBC proteasome was purchased from South Bay Bio; purchased South Bay Bio; host or cells: human red blood cells
Description: as §1, §2
as §3, with “parameters). […]” for “parameters).”

chymotrypsin = target: T4, chymotrypsin (Bos taurus, UniProt P00766); assay: Fluorometric kinetic enzyme assay, chymotrypsin (Suc-LLVY-AMC)
T4 construct: chymotrypsin was purchased from Sigma Aldrich; purchased Sigma Aldrich; host or cells: bovine pancreas

[4] = target: T5, cathepsin B enzyme from human liver (Homo sapiens, UniProt P07858); assay: Fluorometric kinetic enzyme assay, cathepsin B (Cbz-Arg-Arg-AMC)
T5 construct: from human liver; purchased Millipore; host or cells: human liver

m-calpain = target: T6, m-calpain (Sus scrofa, UniProt P35750); assay: Fluorometric kinetic enzyme assay, m-calpain (Suc-LLVY-AMC)
T6 construct: erythrocytes calpain-1 were purchased from Millipore; purchased Millipore; host or cells: porcine erythrocytes
T6 sequence (P35750 1-714): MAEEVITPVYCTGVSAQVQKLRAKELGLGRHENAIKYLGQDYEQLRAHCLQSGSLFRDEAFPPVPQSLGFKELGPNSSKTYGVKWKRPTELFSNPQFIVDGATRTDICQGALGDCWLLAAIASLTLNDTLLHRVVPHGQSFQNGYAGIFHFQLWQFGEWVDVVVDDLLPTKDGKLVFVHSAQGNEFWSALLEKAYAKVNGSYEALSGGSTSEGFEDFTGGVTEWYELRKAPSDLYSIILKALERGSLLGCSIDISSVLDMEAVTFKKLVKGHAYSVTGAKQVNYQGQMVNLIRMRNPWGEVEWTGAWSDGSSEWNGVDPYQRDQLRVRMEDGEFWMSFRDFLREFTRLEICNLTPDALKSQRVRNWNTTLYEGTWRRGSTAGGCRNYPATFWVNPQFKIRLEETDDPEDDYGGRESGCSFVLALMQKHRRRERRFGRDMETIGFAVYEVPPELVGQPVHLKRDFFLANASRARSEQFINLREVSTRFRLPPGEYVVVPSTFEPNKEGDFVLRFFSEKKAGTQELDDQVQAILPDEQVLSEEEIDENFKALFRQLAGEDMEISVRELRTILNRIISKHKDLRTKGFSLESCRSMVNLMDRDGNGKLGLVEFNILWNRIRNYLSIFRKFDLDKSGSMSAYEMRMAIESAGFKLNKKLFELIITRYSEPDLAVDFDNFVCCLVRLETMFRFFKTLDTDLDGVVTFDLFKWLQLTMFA
T6 sequence (P04574 1-266 partner): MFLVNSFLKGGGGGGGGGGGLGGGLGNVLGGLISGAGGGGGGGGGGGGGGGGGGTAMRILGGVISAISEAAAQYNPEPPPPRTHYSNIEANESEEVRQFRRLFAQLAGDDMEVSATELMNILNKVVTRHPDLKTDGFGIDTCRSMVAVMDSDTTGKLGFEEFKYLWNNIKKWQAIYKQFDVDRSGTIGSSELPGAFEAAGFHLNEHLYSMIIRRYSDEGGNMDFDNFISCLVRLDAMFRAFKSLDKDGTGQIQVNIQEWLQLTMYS

[5] = human 20S proteasome, Ac-RLR-AMC, N.I. = no inhibition at 130 μM, read-out: IC50 20S Proteasome T-L Activity
[6] = human 20S proteasome, Cbz-LLE-AMC, N.I. = no inhibition at 130 μM, read-out: IC50 20S Proteasome PGPH-L Activity
[7] = Suc-LLVY-AMC, N.I. = no inhibition at 130 μM, read-out: IC50 Chymotrypsin
[8] = human liver enzyme, Cbz-Arg-Arg-AMC, pH 6.0, N.I. = no inhibition at 130 μM, read-out: IC50 Cathepsin B
[9] = Suc-LLVY-AMC, N.I. = no inhibition at 130 μM, read-out: IC50 m-Calpain

Row | IC50 [1] [µM] | IC50 [2, 5] [µM] | IC50 [3, 6] [µM] | IC50 (chymotrypsin; [7]) [µM] | inhibition of cathepsin B, in words [4] | IC50 [4, 8] [µM] | inhibition of m-calpain, in words (m-calpain) | IC50 (m-calpain; [9]) [µM] | inhibition of T-L activity, in words [2] | inhibition of PGPH-L activity, in words [3] | inhibition of chymotrypsin, in words (chymotrypsin) | inhibitory potency for the proteasome, in words ([1]; comparison among tested inhibitors) | Compound | fold lower potency (ChT-L) than macrocycle 5 ([1]; linear analogue versus macrocyclic 5) [fold] | IC50 [2] [µM] | IC50 [3] [µM] | IC50 (chymotrypsin) [µM] | IC50 [4] [µM] | IC50 (m-calpain) [µM]
1 | 0.24 ± 0.06 | > 130 | 7.51 ± 2.32 | > 130 | inhibits | 3.1 ± 1 | inhibits | 2 ± 0.3 |  |  |  |  | CC(C)C[C@@H](C=O)NC(=O)[C@@H]1Cc2ccc(cc2)Oc2cc(ccc2[N+](=O)[O-])C[C@H](NC(=O)OCc2ccccc2)C(=O)N[C@@H](CC(C)C)C(=O)N1 [compound 16, reference compound] |  |  |  |  |  | 
2 | 0.19 ± 0.02 | > 130 | 52.5 ± 16.6 | > 130 | not found to have any cross-reactivity | > 130 | not found to have any cross-reactivity | > 130 | does not significantly inhibit | does not significantly inhibit | not found to have any cross-reactivity |  | CC(=O)N[C@H]1Cc2ccc([N+](=O)[O-])c(c2)Oc2ccc3c(c2)C(C[C@@H](C(=O)N[C@@H](CC(C)C)C(=O)[C@@]2(C)CO2)NC(=O)[C@H](CC(C)C)NC1=O)C(=O)N3 (stereo partly drawn) [compound 5] |  |  |  |  |  | 
3 |  |  |  | > 130 |  | > 130 |  | > 130 |  |  |  |  | CC(C)C[C@H](NC(=O)[C@H](CCc1ccccc1)NC(=O)CN1CCOCC1)C(=O)N[C@@H](Cc1ccccc1)C(=O)N[C@@H](CC(C)C)C(=O)[C@@]1(C)CO1 [carfilzomib, reference compound] |  |  |  |  |  | 
4 | 0.55 ± 0.09 | > 130 | > 130 | > 130 |  | > 130 |  | > 130 |  |  |  |  | CC(=O)N[C@H]1Cc2ccc([N+](=O)[O-])c(c2)Oc2ccc(cc2)C[C@@H](C(=O)N[C@@H](CC(C)C)C(=O)[C@@]2(C)CO2)NC(=O)[C@H](CC(C)C)NC1=O [15a] |  |  |  |  |  | 
5 | 25 ± 1 | 46.1 ± 3.1 | > 130 | > 130 |  | > 130 |  | > 130 |  |  |  | least potent inhibitor | CC(=O)N[C@H]1Cc2ccc([N+](=O)[O-])c(c2)Oc2ccc3c(c2)C(C[C@@H](C(=O)N[C@@H](CC(C)C)C(N)=O)NC(=O)[C@H](CC(C)C)NC1=O)C(=O)N3 (stereo partly drawn) [compound 12] |  |  |  |  |  | 

Row | Compound | IC50 [1] [µM] | IC50 [2, 5] [µM] | IC50 [3, 6] [µM] | IC50 (chymotrypsin; [7]) [µM] | inhibition of cathepsin B, in words [4] | IC50 [4, 8] [µM] | inhibition of m-calpain, in words (m-calpain) | IC50 (m-calpain; [9]) [µM] | inhibition of T-L activity, in words [2] | inhibition of PGPH-L activity, in words [3] | inhibition of chymotrypsin, in words (chymotrypsin) | inhibitory potency for the proteasome, in words ([1]; comparison among tested inhibitors) | fold lower potency (ChT-L) than macrocycle 5 ([1]; linear analogue versus macrocyclic 5) [fold] | IC50 [2] [µM] | IC50 [3] [µM] | IC50 (chymotrypsin) [µM] | IC50 [4] [µM] | IC50 (m-calpain) [µM]
6 | CC(=O)N[C@@H](Cc1ccc([N+](=O)[O-])c(F)c1)C(=O)N[C@@H](CC(C)C)C(=O)N[C@@H](CC1C(=O)Nc2ccc(O)cc21)C(=O)N[C@@H](CC(C)C)C(=O)[C@@]1(C)CO1 (stereo partly drawn) [compound 6] | 1 ± 0.1 |  |  |  |  |  |  |  |  |  |  |  | 4 | > 130 | > 130 | > 130 | > 130 | > 130
7 | CC(=O)N[C@H]1Cc2ccc([N+](=O)[O-])c(c2)Oc2ccc(cc2)CC[C@@H](C(=O)N[C@@H](CC(C)C)C(=O)[C@@]2(C)CO2)NC(=O)[C@H](CC(C)C)NC1=O [15b] | 2.9 ± 0.42 | > 130 | > 130 | > 130 |  | > 130 |  | > 130 |  |  |  |  |  |  |  |  |  | 
